These results are taken from US6809110B2 (Hoffmann-La Roche Inc., priority 2002, dated 2004).

The target in test [1] is T1, PPARγ (Mus musculus, UniProt P37238).
T1 sequence (P37238 204-505): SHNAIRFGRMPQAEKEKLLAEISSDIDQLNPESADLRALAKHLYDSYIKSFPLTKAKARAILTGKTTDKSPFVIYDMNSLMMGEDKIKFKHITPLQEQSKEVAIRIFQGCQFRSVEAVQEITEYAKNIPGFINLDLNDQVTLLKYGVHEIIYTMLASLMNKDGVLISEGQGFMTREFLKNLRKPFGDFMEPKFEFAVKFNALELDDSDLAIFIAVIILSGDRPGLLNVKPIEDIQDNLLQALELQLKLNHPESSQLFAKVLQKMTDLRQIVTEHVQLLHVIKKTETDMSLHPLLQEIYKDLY
Nature of the test: Luciferase transcriptional reporter gene assay, BHK21 cells transfected with PPARγ-LBD expression plasmid. It is filed as cell-based. The arrangement: PPARγ (aa 174 to 476) and PPARα (aa 167 to 469); expressed in transfected cells; host or cells: BHK21 (ATCC CCL10). The note with it: 24 hours incubation. The source says: (§1) Full-length cDNA clones for human PPARα and mouse PPARγ were obtained by RT-PCR from human adipose and mouse liver cRNA, respectively, cloned into plasmid vectors and verified by DNA sequencing. (With respect to cloning of PPARα cDNA, see Sher, T. et al. “cDNA doning, chromosomel mapping and functional characterization of the human peroxisome proliferator activated receptor”, Biochemistry 32(21) 5598-5604 (1993); with respect to cloning of PPARγ2 cDNA, see Tontonoy P., et al. “mPPAR gamma 2: tissue-specific regulator of an adipocyte enhancer”, Genes Dev. 8(10) 1224-34 (1994).) Bacterial and mammalian expression vectors were constructed to produce glutathione-s-transferase (GST) and Gal4 DNA binding domain proteins fused to the ligand binding domains (LBD) of PPARγ (aa 174 to 476) and PPARα (aa 167 to 469). To accomplish this, the portions of the cloned sequences encoding the LBDs were amplified from the full-length clones by PCR and then subcloned into the plasmid vectors. Final clones were verified by DNA sequence analysis.
(§2) Baby hamster kidney cells (BHK21 ATCC CCL10) were grown in DMEM medium containing 10% FBS at 37° C. in a 95%02:5%CO2 atmosphere. Cells were seeded in 6 well plates at a density of 10^5 Cells/well and then batch-transfected with either the pPA-PPARγ-LBD or pFA-PPARα-LBD expression plasmids plus a reporter plasmid and an expression plasmid encoding the secretable form of alkaline phosphatase (SEAP) as a normalization control. […] Six hours following transfection, the cells were harvested by trypsinization and seeded in 96 well plates at a density of 10^4 cells/well. After 24 hours to allow attachment of cells, the medium was removed and replaced with 100 ul of phenol red-free medium containing the test substances or control ligands (final DMSO concentration: 0.1%). Following incubation of the cells for 24 hours with substances, 50 ul of the supernatant was recovered and analyzed for SEAP activity (Roche Molecular Biochemicals). The remainder of the supernatant was discarded, 50 ul PBS was added per well followed by one volume of Luciferase Constant-Light Reagent (Roche Molecular Biochemicals) to lyse the cells and initiate the luciferase reaction. Luminescence for both SEAP and luciferase was measured in a Packard TopCount. Luciferase activity was normalized to the SEAP control and transcriptional activation in the presence of a test substance was expressed as fold-activation over cells incubated in the absence of the substance. EC50 values were calculated using the XLfit program (ID Business Solutions Ltd. UK).
Background: In a reporter assay the amount or activity of a reporter protein is the signal.

The target of test [2] is T1, PPARγ. Put plainly: PPARγ radioligand binding assay (SPA, GST-PPARγ-LBD fusion protein). Details: PPARγ (aa 174 to 476). To be noted: SPA beads.
Description: as §1
(§3) Induction, expression, and purification of GST-LBD fusion proteins were performed in E. coli strain BL21(pLysS) cells by standard methods (Ref: Current Protocols in Molecular Biology, Wiley Press, edited by Ausubel et al.).
(§4) PPARγ receptor binding was assayed in TKE50 (50 mM Tris-HCl, pH 8, 50 mM KCl, 2 mM EDTA, 0.1 mg/ml fatty acid-free BSA and 10 mM DTT). For each 96 well reaction an 140 ng equivalent of GST-PPARγ-LBD fusion protein was bound to 10 ug SPA beads (PharmaciaArnersham) in a final volume of 50 ul by shaking. The resulting slurry was incubated for 1 h at RT and centrifuged for 2 min at 1300 g. The supernatant containing unbound protein was removed and the semidry pellet containing the recptor-coated beads was resolved in 50 ul of TKE. For radioligand binding e.g. 10000 dpm 2(S)-(2-benzoyl-phenylamino)-3-{4-[1,1-ditritio-2-(5-methyl-2-phenyl-oxazol-4-yl)-ethoxy]-phenyl}-propionic acid in 50 ul were added, the reaction incubated at RT for 1 h and scintillation proximity counting performed. All binding assays were performed in 96 well plates and the amount of bound ligand measured on a Packard TopCount using OptiPlates (Packard). Nonspecific binding was determined in the presence of 10^−4 M unlabelled compound. Dose response curves were done in triplicates within a range of concentration from 10^−10 M to 10^−4 M.

Test [3] addresses T2, PPARα (Homo sapiens, UniProt Q07869).
T2 sequence (Q07869 167-468 limits assumed): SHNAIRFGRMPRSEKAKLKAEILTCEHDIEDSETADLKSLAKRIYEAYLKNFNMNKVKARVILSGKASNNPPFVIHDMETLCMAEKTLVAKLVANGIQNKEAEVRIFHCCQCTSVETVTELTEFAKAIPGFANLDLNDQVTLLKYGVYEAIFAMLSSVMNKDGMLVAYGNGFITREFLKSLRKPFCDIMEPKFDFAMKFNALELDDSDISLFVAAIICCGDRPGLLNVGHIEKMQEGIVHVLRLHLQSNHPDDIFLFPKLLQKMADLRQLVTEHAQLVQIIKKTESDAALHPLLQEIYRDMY
Put plainly: Luciferase transcriptional reporter gene assay, BHK21 cells transfected with pFA-PPARα-LBD. The class given is cell-based. The arrangement: PPARα (aa 167 to 469). To be noted: 24 hours incubation. As for the experimental part:
(§5) Full-length cDNA clones for human PPARα and mouse PPARγ were obtained by RT-PCR from human adipose and mouse liver cRNA, respectively, cloned into plasmid vectors and verified by DNA sequencing. […] To accomplish this, the portions of the cloned sequences encoding the LBDs were amplified from the full-length clones by PCR and then subcloned into the plasmid vectors. Final clones were verified by DNA sequence analysis.
as §2

Test [4] concerns the target T2, PPARα. Nature of the test: PPARα radioligand binding assay (SPA, GST-PPARα-LBD fusion protein). The arrangement: PPARγ (aa 174 to 476) and PPARα (aa 167 to 469); made in house; host or cells: E. coli BL21(pLysS). To be noted: SPA beads.
Description: as §5, §3
as §4, with “PPARα receptor” for “PPARγ receptor”, “reaction a” for “reaction an”, “of GST-PPARα-LBD” for “of GST-PPARγ-LBD”, “beads (PharmaciaAmersham)” for “beads (PharmaciaArnersham)”, “dpm of” for “dpm”, “2(S)-(2-benzoyl-phenylamino)-3-{4-[1,1-ditritio-2-(5-methyl-2-phenyl-oxazol-4-yl)-ethoxy]-phenyl}-propionic acid or 2,3-ditritio-2(S)-methoxy-3-(4-(2-(5-methyl-2-phenyl-oxazol-4-yl)-ethoxy]-benzo[b]thiophen-7-yl}-propionic” for “2(S)-(2-benzoyl-phenylamino)-3-{4-[1,1-ditritio-2-(5-methyl-2-phenyl-oxazol-4-yl)-ethoxy]-phenyl}-propionic”

Test [5] concerns the target T2, PPARα. Nature of the test: Luciferase transcriptional reporter gene assay, BHK21 cells transfected with pFA-PPARα-LBD. It is filed as cell-based. The note with it: 24 hours incubation. As for the experimental part: as §5
Baby hamster kidney cells (BHK21 ATCC CCL10) were grown in DMEM medium containing 10% FBS at 37° C. in a 95%02:5%CO2 atmosphere. Cells were seeded in 6 well plates at a density of 10^5 Cells/well and then batch-transfected with either the pPA-PPARγ-LBD or pFA-PPARα-LBD expression plasmids plus a reporter plasmid and an expression plasmid encoding the secretable form of alkaline phosphatase (SEAP) as a normalization control. […] Following incubation of the cells for 24 hours with substances, 50 ul of the supernatant was recovered and analyzed for SEAP activity (Roche Molecular Biochemicals). […] Luminescence for both SEAP and luciferase was measured in a Packard TopCount. Luciferase activity was normalized to the SEAP control and transcriptional activation in the presence of a test substance was expressed as fold-activation over cells incubated in the absence of the substance. EC50 values were calculated using the XLfit program (ID Business Solutions Ltd. UK).

The target of test [6] is T1, PPARγ. Nature of the test: PPARγ radioligand binding assay (SPA, GST-PPARγ-LBD fusion protein). The note with it: SPA beads. An excerpt:
Full-length cDNA clones for human PPARα and mouse PPARγ were obtained by RT-PCR from human adipose and mouse liver cRNA, respectively, cloned into plasmid vectors and verified by DNA sequencing. (With respect to cloning of PPARα cDNA, see Sher, T. et al. “cDNA doning, chromosomel mapping and functional characterization of the human peroxisome proliferator activated receptor”, Biochemistry 32(21) 5598-5604 (1993); with respect to cloning of PPARγ2 cDNA, see Tontonoy P., et al. “mPPAR gamma 2: tissue-specific regulator of an adipocyte enhancer”, Genes Dev. 8(10) 1224-34 (1994).) Bacterial and mammalian expression vectors were constructed to produce glutathione-s-transferase (GST) and Gal4 DNA binding domain proteins fused to the ligand binding domains (LBD) of PPARγ (aa 174 to 476) and PPARα (aa 167 to 469). To accomplish this, the portions of the cloned sequences encoding the LBDs were amplified from the full-length clones by PCR and then subcloned into the plasmid vectors. Final clones were verified by DNA sequence analysis. […]
PPARγ receptor binding was assayed in TKE50 (50 mM Tris-HCl, pH 8, 50 mM KCl, 2 mM EDTA, 0.1 mg/ml fatty acid-free BSA and 10 mM DTT). […] All binding assays were performed in 96 well plates and the amount of bound ligand measured on a Packard TopCount using OptiPlates (Packard). Nonspecific binding was determined in the presence of 10^−4 M unlabelled compound. […]

pEC50, pIC50: −log10 of the molar value.

As a reminder, the pEC50 is −log10 of the EC50, conventionally taken in molar units. A lower pEC50 goes with a large EC50. One may read the pIC50 as the IC50 on a negative log10 scale, so that one unit is a factor of ten. A high value points to a low IC50. For `CCOC(Cc1ccc(OCc2csc(-c3ccc(C(C)C)cc3)n2)c(C)c1)C(=O)O` (racemic) [Example 5, [rac]-2-Ethoxy-3-{4-[2-(4-isopropyl-phenyl)-thiazol-4-ylmethoxy]-3-methyl-phenyl}-propionic acid], the pEC50 at PPARγ [1] is 6.41; on PPARα [3] it was 6.40. For the same compound, the pIC50 is 7.02 on PPARγ [2] and 6.88 on PPARα [4].
`CCOC(Cc1ccc(OCc2csc(-c3ccc(Cl)cc3)n2)cc1C)C(=O)O` (racemic) [Example 14, [rac]-3-{4-[2-(4-chloro-phenyl)-thiazol-4-ylmethoxy]-2-methyl-phenyl}-2-ethoxy-propionic acid]: the values for the negative logarithm of the EC50 (pEC50) on PPARγ [1] and at PPARα [3] were 6.22 and 7.11, respectively. In addition, the figures for the negative logarithm of the IC50 (pIC50) on PPARγ [2] and on PPARα [4] were 6.34 and 6.96, respectively.
In the case of `CCOC(Cc1ccc(OCCc2csc(-c3ccc(C(F)(F)F)cc3)n2)c(F)c1)C(=O)O` (racemic) [Example 25, [rac]-2-Ethoxy-3-(3-fluoro-4-{2-[2-(4-trifluoromethyl-phenyl)-thiazol-4-yl]-ethoxy}-phenyl)-propionic acid], the results for the pEC50 at PPARγ [1] and at PPARα [3] were 6.29 and 6.94, respectively. Further, the pIC50 at PPARγ [2] is 6.27; on PPARα [4], 6.43.
In the case of `CCOC(Cc1ccc(OCCCc2csc(-c3ccc(C(C)C)cc3)n2)c(F)c1)C(=O)O` (racemic) [Example 43, [rac]-2-Ethoxy-3-(3-fluoro-4-{3-[2-(4-isopropyl-phenyl)-thiazol-4-yl]-propoxy}-phenyl)-propionic acid], the negative logarithm of the EC50 (pEC50) at PPARγ [1] was 6.27; at PPARα [3], 5.67. Further, the pIC50 on PPARγ [2] is 7.28; at PPARα [4] it was 7.30.
As for `CCOC(Cc1ccc(OCCc2nc(-c3ccc(OC(F)(F)F)cc3)sc2C)c(C)c1)C(=O)O` (racemic) [Example 60, [rac]-2-ethoxy-3-(3-methyl-4-{2-[5-methyl-2-(4-trifluoromethoxy-phenyl)-thiazol-4-yl]-ethoxy}-phenyl)-propionic acid], the figures for the pEC50 on PPARγ [1] and on PPARα [3] were 6.39 and 6.13, respectively. Also, the figures for the pIC50 at PPARγ [2] and on PPARα [4] were 7.38 and 7.43, respectively.
As to `CCOC(Cc1ccc(OCCc2nc(-c3cc(OC)cc(OC)c3)sc2C)c(OC)c1)C(=O)O` (racemic) [Example 64], the pEC50 is 6.55 at PPARγ [1] and 6.29 at PPARα [5]. For the same compound, the values for the negative logarithm of the IC50 (pIC50) on PPARγ [6] and at PPARα [4] were 7.08 and 7.02, respectively.
Take `CCOC(Cc1ccc(OCc2csc(-c3ccc(Cl)cc3)n2)c2ccoc12)C(=O)O` (racemic) [Example 95]: the pEC50 on PPARγ [1] was 5.80; at PPARα [5], 7.27. Besides, the negative-log IC50 (pIC50) was 6.03 on PPARγ [6] and 6.94 at PPARα [4].
For `CCOC(Cc1ccc(OCCCc2nc(-c3ccc(C(C)(C)C)cc3)sc2C)cc1C)C(=O)O` (racemic) [Example 102, [rac]-3-(4-{3-[2-(4-tert-Butyl-phenyl)-5-methyl-thiazol-4-yl]-propoxy}-2-methyl-phenyl)-2-ethoxy-propionic acid], the pEC50 was 7.38 on PPARγ [1] and 6.67 on PPARα [3]. Moreover, the pIC50 on PPARγ [2] was 7.70; on PPARα [4] it was 7.82.
As to `CCO[C@@H](Cc1ccc(OCc2csc(-c3cccc(Cl)c3)n2)cc1C)C(=O)O` [Example 19, (2S)-3-{4-[2-(3-Chloro-phenyl)-thiazol-4-ylmethoxy]-2-methyl-phenyl}-2-ethoxy-propionic acid], the pEC50 at PPARγ [1] is 7.22; on PPARα [3], 7.15. In addition, the figures for the pIC50 at PPARγ [2] and at PPARα [4] were 6.75 and 7.05, respectively.
For `CCO[C@@H](Cc1ccc(OCc2csc(-c3ccc(Cl)cc3)n2)cc1C)C(=O)O` [Example 20, (2S)-3-{4-[2-(4-Chloro-phenyl)-thiazol-4-ylmethoxy]-2-methyl-phenyl}-2-ethoxy-propionic acid], the pEC50 on PPARγ [1] is 6.68; at PPARα [3], 7.57. The pIC50 on PPARγ [2] is 6.13; at PPARα [4], 7.62.
